Data: patent US20190211072A1, “TRI-AGONIST FOR THE GLu, GLP-1 AND NPY2 RECEPTORS” (Syracuse University, priority 2018, published 2019)
One block for each molecule: values may come before it.

Key:
GLP-1R = molecular target: T1, GLP-1R (Homo sapiens, UniProt P43220); assay: LY2409021 block of GGP817 action in HEK293-GLP-1R cells transduced with H188; type: cell-based
T1 construct: expressed in transfected cells; host or cells: HEK293-GLP-1R cells transduced with the H188 cAMP FRET reporter
Text: (§1) It is increasingly evident that hybrid peptides have the capacity to stimulate multiple GPCRs that participate in metabolic homeostasis.
(§2) This was established by monitoring its ability to stimulate a 60% maximal ΔFRET in the cAMP assay.

GluR = GluR (UniProt P30082); assay: LY2409021 block of GGP817 action in HEK293-GluR cells transduced with H188; type: cell-based; conditions: read-out: IC50, block of GGP817 agonist action at the GluR, GGP817 300 nM
Text: as §1, §2

human NPY2R = molecular target: T2, human NPY2R (Homo sapiens, UniProt P49146); assay: cAMP-lowering action in HEK293-H188-C24 cells transfected with NPY2R (adenosine or forskolin pre-stimulation); type: cell-based; conditions: BIIE0246 2 μM; adenosine 2 μM
T2 construct: expressed in transfected cells; host or cells: HEK293-H188-C24 cells
T2 sequence (P49146 1-381): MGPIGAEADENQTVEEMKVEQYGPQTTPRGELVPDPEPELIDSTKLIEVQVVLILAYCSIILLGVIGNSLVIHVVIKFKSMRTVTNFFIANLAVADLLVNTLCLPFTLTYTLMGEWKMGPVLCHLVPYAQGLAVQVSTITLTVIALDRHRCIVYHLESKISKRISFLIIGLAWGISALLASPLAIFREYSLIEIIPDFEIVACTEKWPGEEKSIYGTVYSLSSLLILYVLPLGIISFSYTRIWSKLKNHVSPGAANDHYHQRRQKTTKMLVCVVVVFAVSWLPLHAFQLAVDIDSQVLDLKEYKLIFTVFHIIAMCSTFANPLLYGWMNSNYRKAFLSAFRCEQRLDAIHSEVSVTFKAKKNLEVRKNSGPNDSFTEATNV

[1] = molecular target: T3, human neuropeptide Y2 receptor (NPY2R) (human, UniProt P49146); assay: cell-based or functional assay
T3 sequence: T2 sequence (P49146 1-381)

T1 sequence (P43220 24-463, species assumed): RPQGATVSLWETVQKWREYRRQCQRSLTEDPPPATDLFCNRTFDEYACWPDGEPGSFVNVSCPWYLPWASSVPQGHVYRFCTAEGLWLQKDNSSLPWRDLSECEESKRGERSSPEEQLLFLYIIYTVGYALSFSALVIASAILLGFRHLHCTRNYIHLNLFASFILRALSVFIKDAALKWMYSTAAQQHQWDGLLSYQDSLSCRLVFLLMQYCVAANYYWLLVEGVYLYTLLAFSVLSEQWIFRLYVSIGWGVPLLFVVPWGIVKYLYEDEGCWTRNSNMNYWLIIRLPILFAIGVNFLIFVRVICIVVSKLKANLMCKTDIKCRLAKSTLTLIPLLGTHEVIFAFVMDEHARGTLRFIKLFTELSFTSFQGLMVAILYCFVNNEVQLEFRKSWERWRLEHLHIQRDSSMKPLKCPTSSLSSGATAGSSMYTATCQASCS

IC50 (GLP-1R): 1.6 µM | IC50 (GluR): 0.908 µM
Molecule: Cc1cc(O[C@@H](CCC(F)(F)F)c2ccc(C(=O)NCCC(=O)O)cc2)cc(C)c1-c1ccc(C(C)(C)C)cc1 [LY2409021]

effect of antagonist on the cAMP-lowering action of GGP817 (human NPY2R): blocked
Molecule: N=C(N)NCCC[C@H](NC(=O)CC1(CC(=O)N2CCN(C3c4ccccc4NC(=O)c4ccccc43)CC2)CCCC1)C(=O)NCCn1c(=O)n(-c2ccccc2)n(-c2ccccc2)c1=O (stereo partly shown) [BIIE0246]

EC50 of NPY2 receptor agonism (H188 FRET) [1]: ~3 µM
Molecule: HSQGTFTSDYSKYLDSRRAQDFVQWLMNTRHYLNLVTRQRY (C-terminal amide (-NH2)) [GGP817]
